Data from patent US6737383B1, “Herbicidal oxadiazolidines” (priority 1999, dated 2004).

Tests used:
corn = experiment: Test B pre/postemergence corn; type: in vivo, Zea mays
Summary of the method: (§1)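 Herbicidal effect was estimated by eye on a ten-point control scale after plants spent twelve to sixteen days in a greenhouse following soil or foliar treatment. Foliar sprays targeted plants at one to four leaves; all doses were formulated in a non-phytotoxic solvent with surfactant.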

rape = experiment: Test B pre/postemergence rape; type: in vivo, Brassica napus
Summary of the method: as §1

soybean = experiment: Test B pre/postemergence soybean; type: in vivo, Glycine max
Summary of the method: as §1

smallflower flatsedge = experiment: Test B flood test smallflower flatsedge; type: in vivo, Cyperus difformis; settings: for Plant response rating, S. Flatsedge (0 to 10 scale, 0 is no effect, 10 is complete control): Rate 62 g/ha; for Plant response rating, S. Flatsedge (0 to 10 scale, 0 is no effect, 10 is complete control) / S. Flatsedge plant response rating (0 to 10 scale, 0 is no effect, 10 is complete control): flood test species, visual evaluation after twelve to sixteen days; for S. Flatsedge plant response rating (0 to 10 scale, 0 is no effect, 10 is complete control): Rate 125 g/ha, under heading Pre-emergence
Summary of the method: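 Read-out is a visual response score from 0 (no effect) to 10 (complete control), assigned by comparison with untreated controls. Treatment was applied at the 2-leaf stage, and plants stayed in the greenhouse for twelve to sixteen days before scoring.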

[1] = Postemergence, Rate 62 g/ha, scale of 0 to 10, 0 is no effect, 10 is complete control
[2] = Postemergence, Rate 125 g/ha, scale 0 to 10, 0 is no effect, 10 is complete control
[3] = Postemergence, Rate 500 g/ha, scale 0 to 10, 0 is no effect, 10 is complete control
[4] = Preemergence, Rate 62 g/ha, scale of 0 to 10 where 0 is no effect and 10 is complete control
[5] = Preemergence, Rate 125 g/ha, scale 0 to 10, 0 is no effect, 10 is complete control
[6] = Preemergence, Rate 500 g/ha, scale of 0 to 10 where 0 is no effect and 10 is complete control
[7] = Rate 250 g/ha, Postemergence, scale of 0 to 10 where 0 is no effect and 10 is complete control
[8] = Rate 250 g/ha, Pre-emergence (flood test species), scale 0 to 10, 0 is no effect, 10 is complete control
[9] = Rate 500 g/ha, Pre-emergence section of Table B, 0 to 10 scale (0 no effect, 10 complete control)
[10] = Preemergence, Rate 62 g/ha, scale 0 to 10 (0 no effect, 10 complete control)
[11] = Postemergence, Rate 500 g/ha, scale of 0 to 10 where 0 is no effect and 10 is complete control
[12] = Postemergence, Rate 62 g/ha, scale 0 to 10, 0 is no effect, 10 is complete control
[13] = Postemergence, Rate 125 g/ha, scale of 0 to 10 where 0 is no effect and 10 is complete control
[14] = Postemergence, Rate 250 g/ha, scale of 0 to 10, 0 is no effect, 10 is complete control
[15] = Preemergence, Rate 125 g/ha, scale of 0 to 10 where 0 is no effect and 10 is complete control
[16] = Preemergence, Rate 250 g/ha, scale 0 to 10 (0 no effect, 10 complete control)
[17] = Postemergence, Rate 1000 g/ha, scale 0 to 10 (0 no effect, 10 complete control)
[18] = Rate 500 g/ha, Postemergence, scale 0 to 10, 0 is no effect, 10 is complete control
[19] = Rate 1000 g/ha, Preemergence, scale 0 to 10 (0 no effect, 10 complete control)

## CC(C)N(C(=O)n1oc(=O)n(CCC2OCCCO2)c1=O)c1ccc(Cl)cc1 [Compound 532]
corn; [1]
  Corn plant response rating: 2
corn; [2]
  Corn plant response rating: 0
corn; [3]
  Plant response rating, Corn: 2
corn; [4]
  Plant response rating, Corn: 0
corn; [5]
  Corn plant response rating: 0
corn; Preemergence, Rate 250 g/ha
  Corn plant response rating (0 to 10 scale): 0
corn; [6]
  Corn plant response rating: 0
corn; [7]
  Plant response rating, Corn: 0
rape; [1]
  Rape plant response rating: 0
rape; [2]
  Rape plant response rating: 0
rape; [3]
  Plant response rating, Rape: 2
rape; [4]
  Plant response rating, Rape: 0
rape; [5]
  Rape plant response rating: 0
rape; Preemergence, Rate 250 g/ha
  Rape plant response rating (0 to 10 scale): 0
rape; [6]
  Rape plant response rating: 0
rape; [7]
  Plant response rating, Rape: 2
soybean; [1]
  Soybean plant response rating: 0
soybean; [2]
  Soybean plant response rating: 2
soybean; [3]
  Plant response rating, Soybean: 5
soybean; [4]
  Plant response rating, Soybean: 0
soybean; [5]
  Soybean plant response rating: 0
soybean; Preemergence, Rate 250 g/ha
  Soybean plant response rating (0 to 10 scale): 0
soybean; [6]
  Soybean plant response rating: 0
soybean; [7]
  Plant response rating, Soybean: 5
Smallflower flatsedge; Pre-emergence
  Plant response rating, S. Flatsedge (0 to 10 scale, 0 is no effect, 10 is complete control): 9
Smallflower flatsedge
  S. Flatsedge plant response rating (0 to 10 scale, 0 is no effect, 10 is complete control): 8
Smallflower flatsedge; [8]
  S. Flatsedge plant response rating: 9
Smallflower flatsedge; [9]
  S. Flatsedge plant response rating: 9

## CC(C)N(C(=O)n1oc(=O)n(CC2CCC2)c1=O)c1ccc(Cl)cc1 [Compound 550]
corn; [1]
  Corn plant response rating: 0
corn; [2]
  Corn plant response rating: 0
corn; [3]
  Plant response rating, Corn: 2
corn; [10]
  Corn plant response rating: 0
corn; [5]
  Corn plant response rating: 0
corn; Preemergence, Rate 250 g/ha
  Corn plant response rating (0 to 10 scale): 0
corn; [6]
  Corn plant response rating: 0
corn; [7]
  Plant response rating, Corn: 0
rape; [1]
  Rape plant response rating: 0
rape; [2]
  Rape plant response rating: 3
rape; [3]
  Plant response rating, Rape: 3
rape; [10]
  Rape plant response rating: 0
rape; [5]
  Rape plant response rating: 0
rape; Preemergence, Rate 250 g/ha
  Rape plant response rating (0 to 10 scale): 6
rape; [6]
  Rape plant response rating: 9
soybean; [1]
  Soybean plant response rating: 2
soybean; [2]
  Soybean plant response rating: 2
soybean; [3]
  Plant response rating, Soybean: 3
soybean; [10]
  Soybean plant response rating: 0
soybean; [5]
  Soybean plant response rating: 0
soybean; Preemergence, Rate 250 g/ha
  Soybean plant response rating (0 to 10 scale): 0
soybean; [6]
  Soybean plant response rating: 0
soybean; [7]
  Plant response rating, Soybean: 3
Smallflower flatsedge; Pre-emergence
  Plant response rating, S. Flatsedge (0 to 10 scale, 0 is no effect, 10 is complete control): 0
Smallflower flatsedge
  S. Flatsedge plant response rating (0 to 10 scale, 0 is no effect, 10 is complete control): 0
Smallflower flatsedge; [8]
  S. Flatsedge plant response rating: 0
Smallflower flatsedge; [9]
  S. Flatsedge plant response rating: 0

## CC(C)N(C(=O)n1oc(=O)n(CCc2ccccc2)c1=O)c1ccccc1 [Compound 567]
corn; [1]
  Corn plant response rating: 0
corn; [2]
  Corn plant response rating: 0
corn; [11]
  Plant response rating, Corn: 0
corn; [10]
  Corn plant response rating: 0
corn; [5]
  Corn plant response rating: 0
corn; Preemergence, Rate 250 g/ha
  Corn plant response rating (0 to 10 scale): 0
corn; [6]
  Corn plant response rating: 5
corn; [7]
  Plant response rating, Corn: 0
rape; [1]
  Rape plant response rating: 0
rape; [2]
  Rape plant response rating: 0
rape; [11]
  Plant response rating, Rape: 0
rape; [10]
  Rape plant response rating: 0
rape; [5]
  Rape plant response rating: 0
rape; Preemergence, Rate 250 g/ha
  Rape plant response rating (0 to 10 scale): 0
rape; [6]
  Rape plant response rating: 0
rape; [7]
  Plant response rating, Rape: 0
soybean; [11]
  Plant response rating, Soybean: 6
soybean; [10]
  Soybean plant response rating: 0
soybean; [5]
  Soybean plant response rating: 0
soybean; Preemergence, Rate 250 g/ha
  Soybean plant response rating (0 to 10 scale): 0
soybean; [6]
  Soybean plant response rating: 0
soybean; [7]
  Plant response rating, Soybean: 4
Smallflower flatsedge; Pre-emergence
  Plant response rating, S. Flatsedge (0 to 10 scale, 0 is no effect, 10 is complete control): 0
Smallflower flatsedge
  S. Flatsedge plant response rating (0 to 10 scale, 0 is no effect, 10 is complete control): 0
Smallflower flatsedge; [8]
  S. Flatsedge plant response rating: 0
Smallflower flatsedge; [9]
  S. Flatsedge plant response rating: 0

## C#CC(C)n1c(=O)on(C(=O)N(c2ccccc2)C(C)C)c1=O (stereo not shown) [Compound 609]
corn; [12]
  Plant response rating, Corn: 0
corn; [13]
  Plant response rating, Corn: 0
corn; [14]
  Corn plant response rating: 2
corn; [11]
  Plant response rating, Corn: 7
corn; [10]
  Corn plant response rating: 2
corn; [15]
  Corn plant response rating: 2
corn; Preemergence, Rate 250 g/ha
  Corn plant response rating (0 to 10 scale): 6
corn; [6]
  Plant response rating, Corn: 9
rape; [12]
  Plant response rating, Rape: 0
rape; [13]
  Plant response rating, Rape: 0
rape; [14]
  Rape plant response rating: 1
rape; [11]
  Plant response rating, Rape: 3
rape; [10]
  Rape plant response rating: 0
rape; [15]
  Rape plant response rating: 0
rape; [6]
  Plant response rating, Rape: 10
soybean; [12]
  Plant response rating, Soybean: 5
soybean; [13]
  Plant response rating, Soybean: 6
soybean; [11]
  Plant response rating, Soybean: 7
soybean; [10]
  Soybean plant response rating: 4
soybean; [15]
  Soybean plant response rating: 6
soybean; [6]
  Plant response rating, Soybean: 7
Smallflower flatsedge; Pre-emergence
  Plant response rating, S. Flatsedge (0 to 10 scale, 0 is no effect, 10 is complete control): 0
Smallflower flatsedge
  S. Flatsedge plant response rating (0 to 10 scale, 0 is no effect, 10 is complete control): 0
Smallflower flatsedge; [8]
  S. Flatsedge plant response rating: 0
Smallflower flatsedge; [9]
  S. Flatsedge plant response rating: 0

## CC(C)N(C(=O)n1oc(=O)n(CCC(=O)N(C)C)c1=O)c1ccc(F)cc1 [Compound 638]
corn; [12]
  Plant response rating, Corn: 0
corn; [13]
  Plant response rating, Corn: 2
corn; [14]
  Corn plant response rating: 2
corn; [11]
  Plant response rating, Corn: 3
corn; [4]
  Corn plant response rating: 0
corn; [15]
  Corn plant response rating: 8
corn; [6]
  Plant response rating, Corn: 8
rape; [12]
  Plant response rating, Rape: 0
rape; [13]
  Plant response rating, Rape: 0
rape; [14]
  Rape plant response rating: 0
rape; [11]
  Plant response rating, Rape: 0
rape; [4]
  Rape plant response rating: 0
rape; [15]
  Rape plant response rating: 5
rape; [16]
  Plant response rating, Rape: 8
rape; [6]
  Plant response rating, Rape: 10
soybean; [12]
  Plant response rating, Soybean: 1
soybean; [13]
  Plant response rating, Soybean: 1
soybean; [14]
  Soybean plant response rating: 3
soybean; [4]
  Soybean plant response rating: 0
soybean; [15]
  Soybean plant response rating: 0
soybean; [16]
  Plant response rating, Soybean: 3
soybean; [6]
  Plant response rating, Soybean: 3
Smallflower flatsedge; Pre-emergence
  Plant response rating, S. Flatsedge (0 to 10 scale, 0 is no effect, 10 is complete control): 0
Smallflower flatsedge
  S. Flatsedge plant response rating (0 to 10 scale, 0 is no effect, 10 is complete control): 0
Smallflower flatsedge; [8]
  S. Flatsedge plant response rating: 0
Smallflower flatsedge; [9]
  S. Flatsedge plant response rating: 0

## CC(C)N(C(=O)n1oc(=O)n(CC(=O)C2CCC2)c1=O)c1ccc(F)cc1F [Compound 642]
corn; [12]
  Plant response rating, Corn: 0
corn; [13]
  Corn plant response rating: 0
corn; [14]
  Corn plant response rating: 0
corn; [11]
  Plant response rating, Corn: 0
corn; [4]
  Corn plant response rating: 0
corn; [15]
  Corn plant response rating: 0
corn; [16]
  Plant response rating, Corn: 0
corn; [6]
  Plant response rating, Corn: 0
rape; [12]
  Plant response rating, Rape: 0
rape; [13]
  Rape plant response rating: 0
rape; [14]
  Rape plant response rating: 0
rape; [11]
  Plant response rating, Rape: 0
rape; [4]
  Rape plant response rating: 0
rape; [15]
  Rape plant response rating: 2
rape; [16]
  Plant response rating, Rape: 4
rape; [6]
  Plant response rating, Rape: 9
soybean; [12]
  Plant response rating, Soybean: 2
soybean; [13]
  Soybean plant response rating: 2
soybean; [14]
  Soybean plant response rating: 2
soybean; [4]
  Soybean plant response rating: 0
soybean; [15]
  Soybean plant response rating: 0
soybean; [16]
  Plant response rating, Soybean: 0
soybean; [6]
  Plant response rating, Soybean: 0
Smallflower flatsedge; Pre-emergence
  Plant response rating, S. Flatsedge (0 to 10 scale, 0 is no effect, 10 is complete control): 0
Smallflower flatsedge
  S. Flatsedge plant response rating (0 to 10 scale, 0 is no effect, 10 is complete control): 0
Smallflower flatsedge; [8]
  S. Flatsedge plant response rating: 0
Smallflower flatsedge; [9]
  S. Flatsedge plant response rating: 0

## COP(=O)(CCn1c(=O)on(C(=O)N(c2ccc(F)cc2)C(C)C)c1=O)OC [Compound 662]
corn; [13]
  Corn plant response rating: 0
corn; [14]
  Corn plant response rating: 0
corn; [17]
  Corn plant response rating: 1
corn; [15]
  Corn plant response rating: 0
corn; [16]
  Plant response rating, Corn: 0
corn; [6]
  Plant response rating, Corn: 3
corn; [18]
  Corn plant response rating: 0
corn; [19]
  Plant response rating, Corn: 5
rape; [13]
  Rape plant response rating: 0
rape; [17]
  Rape plant response rating: 0
rape; [15]
  Rape plant response rating: 0
rape; [16]
  Plant response rating, Rape: 0
rape; [6]
  Plant response rating, Rape: 0
rape; [18]
  Rape plant response rating: 0
rape; [19]
  Plant response rating, Rape: 4
soybean; [13]
  Soybean plant response rating: 1
soybean; [15]
  Soybean plant response rating: 0
soybean; [16]
  Plant response rating, Soybean: 0
soybean; [6]
  Plant response rating, Soybean: 0
soybean; [18]
  Soybean plant response rating: 2
soybean; [19]
  Plant response rating, Soybean: 3
Smallflower flatsedge; Pre-emergence, Rate 1000 g/ha, scale 0 to 10 (0 no effect, 10 complete control)
  S. Flatsedge plant response rating: 0
Smallflower flatsedge
  S. Flatsedge plant response rating (0 to 10 scale, 0 is no effect, 10 is complete control): 0
Smallflower flatsedge; [8]
  S. Flatsedge plant response rating: 0
Smallflower flatsedge; [9]
  S. Flatsedge plant response rating: 0
